Laboratory results taken from US5002773A, “Transdermal delivery of (+) (2S,3S)-3-acetoxy-8-chloro-5-(2-dimethylaminoethyl)-2,3-dihydro-2-(4-met hoxyphenyl)-1,5-benzothiazepin-4-(5H)-one” (Marion Merrell Dow Inc., priority 1989, dated 1991).
≈ marks a conversion by molar mass, not a printed value. Where a name gives a salt, the structure may show the parent alone.

Experiments:
[1] = Intrinsic in-vitro skin permeability of diltiazem (side-by-side diffusion cell); type: in vitro ADME, hairless mouse; settings: skin permeation rate/solubility, mean and SD, n=3
Protocol: About 2.5 cm×2.5 cm portion of freshly excised hairless mouse skin (5-7 week old, male) prepared as described in Example 4 above, was mounted between the two chambers of the side-by-side diffusion cell and securely clamped. […] 5% Trycol® solution in normal saline, prepared as described in Example 4 above, was introduced into the receptor compartment (the side facing the dermis side of the skin). Both donor and receptor compartments were maintained at 37° C. by a thermostatically controlled circulating water bath. At predetermined time intervals (usually at 3, 6, 12 and 24 hours) the entire volume of the receptor solution was withdrawn and immediately replaced with the same volume of fresh, drug-free Trycol® solution at 37° C. to maintain the […]. […] Slope of this line gave the value of skin permeation rate (mcg/cm^2 /hr).

[2] = literature statement; cited from earlier work
[3] = in vivo; settings: guinea pig, plasma, topical or ocular
[4] = Protocol: The model used is an in-vitro excised hairless mouse skin model which is known in the art. The permeation rates of TA-3090 through the excised skin were measured using a Franz diffusion cell.
In-vitro evaluation of transdermal patches was accomplished using an excised hairless mouse/Franz diffusion cell model (available from Crown Glass Company, Somerville, N.J.) as follows. Immediately following sacrifice by cervical dislocation (or by CO2 gas), a portion (about 3.5 cm×3.5 cm) of the full-thickness abdominal skin was carefully excised from the hairless mouse (5-7 week old, male). The dermal side of the skin was carefully cleaned of any adhering subcutaneous tissue and/or blood vessels. […]
At a predetermined time interval (usually 4, 8, 12 and 24 hours), the entire volume of the receptor solution was withdrawn and immediately replaced with the same volume of the fresh, drug-free Trycol solution at 37° C. to maintain the sink condition. The concentration of TA-3090 in the sample was determined by a sensitive HPLC method. From the concentration profiles of TA-3090 in the receptor compartment, the flux (mcg/cm^2) of skin permeation was calculated using a computer program and then plotted as a function of time (hour). […]

[5] = Solubility of TA-3090 in donor solution; type: physicochemical; settings: aqueous buffer, phosphate buffer, 37° C., mean and SD, n=3
Protocol: (§1) TA-3090 skin permeability was determined using a freshly excised hairless mouse skin and a side-by-side type of diffusion cell (available from Crown Glass Co., Somerville, N.J.). About 2.5 cm×2.5 cm portion of freshly excised hairless mouse skin (5-7 week old, male), prepared as described in Example 4, was mounted between the two chambers of the side-by-side diffusion cell and securely clamped. Saturated solution (with some extra drug in suspension state) of TA-3090 free base in phosphate buffer solution maintained at a particular pH was introduced into the donor side (the side facing the stratum corneum). 5% Trycol® solution in normal saline, prepared as described in Example 4, was introduced in the receptor compartment (the side facing the dermis side of the skin). Both donor and receptor compartments were maintained at 37° C. by a thermostatically controlled circulating water bath. At predetermined time intervals (usually at 3, 6, 12 and 24 hours) the entire volume of the receptor solution was withdrawn and immediately replaced with the same volume of the fresh, drug-free Trycol® solution at 37° C. to maintain the sink condition. […] From the concentration profiles of TA-3090 in the receptor compartment, the flux (mcg/cm^2) of skin permeation was calculated using a computer program and then plotted as a function of time (hour). Slope of this line gave the value of skin permeation rate (mcg/cm^2 /hr).

[6] = tested on: calcium channel; settings: background statement; cited from earlier work
[7] = Aqueous solubility of TA-3090 free base with 5% PEG 20 Oleyl ether; type: physicochemical; settings: with 5% PEG 20 Oleyl ether as solubilizer
Protocol: The aqueous solubility of TA-3090 free base was improved by the incorporation of 5% PEG 20 Oleyl ether as a solubilizer to maintain an effective sink condition required in the investigation, which simulates the biological sink achieved by hemoperfusion. […] Following this, the saline solution containing 5% w/w PEG 20 Oleyl ether (Trycol®) at 37° C. was introduced into the receptor compartment, which was thermostatically controlled at 37° C. by a circulating water bath.

[8] = Intrinsic in-vitro skin permeability of TA-3090 at various pH conditions (side-by-side diffusion cell); type: in vitro ADME, hairless mouse; settings: for Papp: mouse, skin permeation rate/solubility, mean and SD, n=3
Protocol: as §1

[9] = once-a-day oral dose; background statement; cited from earlier work

## COc1ccc([C@@H]2Sc3ccccc3N(CCN(C)C)C(=O)[C@@H]2OC(C)=O)cc1 [diltiazem free base, diltiazem]
[1]
  Intrinsic Permeability: 186.96 ± 49.74 (cm/hr) × 10^-5

## COc1ccc([C@@H]2Sc3ccccc3N(CCN(C)C)C(=O)[C@@H]2OC(C)=O)cc1 [diltiazem HCl, diltiazem hydrochloride]
[2]
  permeability through skin / percutaneous absorption: poor percutaneous absorption
[1]; hydrochloride
  Intrinsic Permeability: 1.66 ± 0.43 (cm/hr) × 10^-5

## COc1ccc([C@@H]2Sc3cc(Cl)ccc3N(CCN(C)C)C(=O)[C@@H]2OC(C)=O)cc1 [TA-3090, (+)(2S,3S)-3-acetoxy-8-chloro-5-(2-dimethylaminoethyl)-2,3-dihydro-2-(4-methoxyphenyl)-1,5-benzothiazepin-4-(5H)-one]
[3]
  concentration at 4 h: 11.4 ± 4.09 ng/mL
  concentration at 8 h: 32.5 ± 4.56 ng/mL
  concentration at 24 h: 75.6 ng/mL
  concentration at 48 h: 71.1 ± 43.1 ng/mL
[4]
  rate of administration from the transdermal delivery device: 0.6 to 29.62 mcg/cm^2 /hr
[5]; donor side pH 5
  solubility: 7730 ± 1130 µg/mL (≈ 17200 µM)
[5]; donor side pH 7
  solubility: 600 ± 20 µg/mL (≈ 1340 µM)
[5]; donor side pH 9
  solubility: 60 ± 4 µg/mL (≈ 134 µM)
[6]
  vasodilating activity: potent vasodilating activity
[7]
  aqueous solubility: improved
[8]; donor side pH 5
  Papp: 1.81 ×10⁻⁶ cm/s
[8]; donor side pH 7
  Papp: 13.4 ×10⁻⁶ cm/s
[8]; donor side pH 9
  Papp: 30.6 ×10⁻⁶ cm/s
[8]; pH 5
  Skin Permeation Rate: 49.04 ± 8.76 mcg/cm^2 /hr
[8]; pH 7
  Skin Permeation Rate: 29.39 ± 11.61 mcg/cm^2 /hr
[8]; pH 9
  Skin Permeation Rate: 6.75 ± 1.54 mcg/cm^2 /hr
[9]
  oral absorption: incomplete oral absorption
